Experimental data published in patent publication US20230113037A1 (Bayer Aktiengesellschaft, priority 2019, published 2023).
Where two headings read alike, the source gives them in different places.

Legend:
[1] = molecular target: T1, AHR (Homo sapiens, UniProt P35869); test: In vitro assay 1: antagonism in human cell line (AHR transactivation, firefly luciferase reporter, kynurenic acid prestimulated); type: cell-based
T1 construct: U87 MG glioblastoma cells (ATCC #HTB-14) endogenously expressing AHR; endogenous in cells; host or cells: U87 MG glioblastoma cells (ATCC #HTB-14)
T1 sequence (P35869 11-848): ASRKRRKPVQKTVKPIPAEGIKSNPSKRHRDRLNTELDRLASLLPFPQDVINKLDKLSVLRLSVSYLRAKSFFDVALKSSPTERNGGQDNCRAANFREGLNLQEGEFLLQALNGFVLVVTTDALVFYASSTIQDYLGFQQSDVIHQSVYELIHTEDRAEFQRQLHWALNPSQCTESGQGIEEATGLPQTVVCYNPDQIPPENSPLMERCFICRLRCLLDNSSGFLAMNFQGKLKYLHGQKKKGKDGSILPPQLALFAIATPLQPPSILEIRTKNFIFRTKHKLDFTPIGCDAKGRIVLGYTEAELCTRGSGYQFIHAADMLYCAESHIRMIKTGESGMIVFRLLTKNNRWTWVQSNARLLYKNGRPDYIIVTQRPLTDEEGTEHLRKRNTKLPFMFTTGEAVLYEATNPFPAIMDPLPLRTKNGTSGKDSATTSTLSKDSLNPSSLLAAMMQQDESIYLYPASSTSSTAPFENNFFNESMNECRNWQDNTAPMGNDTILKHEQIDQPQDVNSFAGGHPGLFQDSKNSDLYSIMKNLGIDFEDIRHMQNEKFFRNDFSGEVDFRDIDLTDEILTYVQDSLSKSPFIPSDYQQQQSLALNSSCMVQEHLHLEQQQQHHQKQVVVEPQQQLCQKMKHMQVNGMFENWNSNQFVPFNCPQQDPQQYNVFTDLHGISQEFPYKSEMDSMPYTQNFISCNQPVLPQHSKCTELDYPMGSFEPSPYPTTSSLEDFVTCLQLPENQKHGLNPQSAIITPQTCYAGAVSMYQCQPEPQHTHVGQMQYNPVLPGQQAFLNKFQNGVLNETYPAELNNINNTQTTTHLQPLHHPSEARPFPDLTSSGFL
Outline: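 Antagonism is measured against kynurenic acid prestimulation in U87 MG glioblastoma cells carrying stable DRE-luciferase and Renilla reporters. Positive inhibition control: 150 μM kynurenic acid with 5 μM staurosporine. Values are normalized to controls; repeats are averaged or given as medians.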

[2] = molecular target: T2, AHR (Mus musculus, UniProt P30561); test: In vitro assay 3: antagonism in mouse cell line (AHR transactivation, firefly luciferase reporter, kynurenic acid prestimulated); type: cell-based; conditions: 200 μM kynurenic acid, 20 hours, read-out: AHR Antagonism Mouse IC50
T2 sequence (P30561 1-848 P471L/N533S/M589L): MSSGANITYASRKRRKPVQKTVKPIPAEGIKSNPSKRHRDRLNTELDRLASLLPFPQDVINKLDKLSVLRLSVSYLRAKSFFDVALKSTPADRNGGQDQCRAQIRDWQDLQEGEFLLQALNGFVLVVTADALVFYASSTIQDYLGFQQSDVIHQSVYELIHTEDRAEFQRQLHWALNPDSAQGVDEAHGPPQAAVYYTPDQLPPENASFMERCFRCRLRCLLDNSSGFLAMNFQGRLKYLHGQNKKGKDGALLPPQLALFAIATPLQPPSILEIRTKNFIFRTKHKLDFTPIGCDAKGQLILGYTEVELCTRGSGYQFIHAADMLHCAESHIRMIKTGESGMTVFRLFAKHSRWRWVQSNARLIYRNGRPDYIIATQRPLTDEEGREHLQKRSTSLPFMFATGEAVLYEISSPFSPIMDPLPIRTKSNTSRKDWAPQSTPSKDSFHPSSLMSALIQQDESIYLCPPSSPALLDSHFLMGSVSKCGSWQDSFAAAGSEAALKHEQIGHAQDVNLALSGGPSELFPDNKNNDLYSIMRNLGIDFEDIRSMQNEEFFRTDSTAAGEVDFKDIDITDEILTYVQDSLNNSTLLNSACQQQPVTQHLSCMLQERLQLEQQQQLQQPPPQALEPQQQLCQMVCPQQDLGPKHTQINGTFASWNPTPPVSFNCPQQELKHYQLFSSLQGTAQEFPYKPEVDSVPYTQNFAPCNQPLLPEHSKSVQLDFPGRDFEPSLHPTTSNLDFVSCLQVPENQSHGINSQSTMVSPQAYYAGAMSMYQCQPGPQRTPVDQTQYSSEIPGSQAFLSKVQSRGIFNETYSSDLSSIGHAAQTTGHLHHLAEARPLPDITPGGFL
Outline: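 Antagonism read as reduced firefly luciferase signal (SteadyGlo) from a stably transfected AHR/DRE reporter in a mouse line prestimulated with kynurenic acid. Data normalized to controls, the full-inhibition control being cells without kynurenic acid; multiple determinations given as average or median values.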

[3] = AHR Antagonism Human IC50 [M], firefly luciferase reporter
[4] = Hepa 1c1c7 cells, firefly luciferase reporter

Compound | IC50 [1, 3] [M] | IC50 [2, 4] [nM] | IC50 ([1]; AHR Antagonism Human IC50 [M]) [M] | IC50 ([2]; mouse Hepa 1c1c7 cells) [nM] | IC50 ([1]; read-out: AHR Antagonism Human IC50) [M]
Cn1cc(-c2nc3c4cccc(S(C)(=O)=O)c4nc(N[C@@H]4CNCCNC4=O)n3n2)cn1 [Example 937, (6R)-6-{[7-(methanesulfonyl)-2-(1-methyl-1H-pyrazol-4-yl)[1,2,4]triazolo[1,5-c]quinazolin-5-yl]amino}-1,4-diazepan-5-one] | > 2e-05 | > 20000 | – | – | –
O=C1NCCCC[C@H]1Nc1nc2c(C(F)(F)F)cccc2c2nc(-c3cnn(C4CC4)c3)nn12 [Example 676, (3R)-3-{[2-(1-cyclopropyl-1H-pyrazol-4-yl)-7-(trifluoromethyl)[1,2,4]triazolo[1,5-c]quinazolin-5-yl]amino}azepan-2-one] | – | – | 6.18e-10 | 1.97 | –
Cc1ccc2nc(N[C@@H]3CCCCNC3=O)n3nc(-c4cn(C)nc4C(F)(F)F)nc3c2c1 [Example 407, (3R)-3-({9-methyl-2-[1-methyl-3-(trifluoromethyl)-1H-pyrazol-4-yl][1,2,4]triazolo[1,5-c]quinazolin-5-yl}amino)azepan-2-one] | – | – | 3.1e-07 | 246 | –
C[C@@H](Nc1nc2c(Br)cccc2c2nc(-c3cnn(C)c3)nn12)C(=O)N1CCOCC1 [Example 785, (2R)-2-{[7-bromo-2-(1-methyl-1H-pyrazol-4-yl)[1,2,4]triazolo[1,5-c]quinazolin-5-yl]amino}-1-(morpholin-4-yl)propan-1-one] | 2.38e-08 | 32.2 | – | – | –
COc1ccc(-c2nc3c4ccccc4nc(NC4CNCCNC4=O)n3n2)cc1 (single isomer, unassigned) [Example 36, 6-{[2-(4-methoxyphenyl)[1,2,4]triazolo[1,5-c]quinazolin-5-yl]amino}-1,4-diazepan-5-one] | – | – | 8.01e-09 | 29.4 | –
CC[C@@H](Nc1nc2ccccc2c2nc(-c3ccc(S(C)(=O)=O)cc3)nn12)C(N)=O [Example 376, (2R)-2-({2-[4-(methanesulfonyl)phenyl][1,2,4]triazolo[1,5-c]quinazolin-5-yl}amino)butanamide] | – | – | 1.61e-08 | 4.93 | –
O=C1NCCNC[C@H]1Nc1nc2ccccc2c2nc(-c3ccc(OC4CC4)cc3)nn12 [Example 411, (6R)-6-({2-[4-(cyclopropyloxy)phenyl][1,2,4]triazolo[1,5-c]quinazolin-5-yl}amino)-1,4-diazepan-5-one] | – | – | 1.77e-07 | 11.2 | –
CS(=O)(=O)c1ccc(-c2nc3c4ccccc4nc(N[C@@H]4CCCCNC4=O)n3n2)cc1 [Example 372, (3R)-3-({2-[4-(methanesulfonyl)phenyl][1,2,4]triazolo[1,5-c]quinazolin-5-yl}amino)azepan-2-one] | – | – | 8.65e-09 | 1.73 | –
O=C1NCCCC[C@H]1Nc1nc2ccccc2c2nc(-c3cnn(C(F)F)c3)nn12 [Example 534, (3R)-3-({2-[1-(difluoromethyl)-1H-pyrazol-4-yl][1,2,4]triazolo[1,5-c]quinazolin-5-yl}amino)azepan-2-one] | – | – | 2.03e-09 | 0.828 | –
COC(=O)N1CCN(C(=O)[C@@H](C)Nc2nc3c(Br)cccc3c3nc(-c4cnn(C)c4)nn23)CC1 [Example 893, methyl 4-{N-[7-bromo-2-(1-methyl-1H-pyrazol-4-yl)[1,2,4]triazolo[1,5-c]quinazolin-5-yl]-D-alanyl}piperazine-1-carboxylate] | 2.65e-08 | 18.2 | – | – | –
COc1ccc(-c2nc3c4c(C5CC5)cccc4nc(N[C@@H]4CCCCNC4=O)n3n2)cc1 [Example 176, (3R)-3-{[10-cyclopropyl-2-(4-methoxyphenyl)[1,2,4]triazolo[1,5-c]quinazolin-5-yl]amino}azepan-2-one] | – | – | 6.81e-09 | 6.55 | –
O=C1NCCCC[C@H]1Nc1nc2ccccc2c2nc(-c3cccc(C(F)(F)F)n3)nn12 [Example 370, (3R)-3-({2-[6-(trifluoromethyl)pyridin-2-yl][1,2,4]triazolo[1,5-c]quinazolin-5-yl}amino)azepan-2-one] | – | – | 5.45e-08 | 6.38 | –
CCn1cc(-c2nc3c4cccc(Cl)c4nc(N[C@@H]4CCCCNC4=O)n3n2)c(C)n1 [Example 819, (3R)-3-{[7-chloro-2-(1-ethyl-3-methyl-1H-pyrazol-4-yl)[1,2,4]triazolo[1,5-c]quinazolin-5-yl]amino}azepan-2-one] | 2.31e-10 | 0.385 | – | – | –
CCC[C@@H](Nc1nc2ccccc2c2nc(-c3ccc(OC)cc3OC(F)(F)F)nn12)C(=O)NC [Example 510, N^2-{2-[4-methoxy-2-(trifluoromethoxy)phenyl][1,2,4]triazolo[1,5-c]quinazolin-5-yl}-N-methyl-D-norvalinamide] | – | – | 5.39e-08 | 11.7 | –
COc1ccc(-c2nc3c4cccc(Br)c4nc(N[C@H](C)C(=O)N4C[C@@H]5C[C@H]4CN5C)n3n2)cc1 [Example 901, (2R)-2-{[7-bromo-2-(4-methoxyphenyl)[1,2,4]triazolo[1,5-c]quinazolin-5-yl]amino}-1-[(1S,4S)-5-methyl-2,5-diazabicyclo[2.2.1]heptan-2-yl]propan-1-one] | 2.88e-09 | 4.79 | – | – | –
Cc1[nH]ncc1-c1nc2c3ccccc3nc(N[C@@H]3CCCCNC3=O)n2n1 [Example 609, (3R)-3-{[2-(5-methyl-1H-pyrazol-4-yl)[1,2,4]triazolo[1,5-c]quinazolin-5-yl]amino}azepan-2-one] | – | – | 1.57e-07 | 324 | –
CC(C)n1cc(-c2nc3c4cccc(Cl)c4nc(N[C@@H]4CCCCNC4=O)n3n2)cn1 [Example 817, (3R)-3-({7-chloro-2-[1-(propan-2-yl)-1H-pyrazol-4-yl][1,2,4]triazolo[1,5-c]quinazolin-5-yl}amino)azepan-2-one] | 5.24e-10 | 1.94 | – | – | –
O=C1NCCNCC1Nc1nc2cccc(Cl)c2c2nc(-c3cccc(F)c3)nn12 (stereo not drawn) [Example 284, 6-{[10-chloro-2-(3-fluorophenyl)[1,2,4]triazolo[1,5-c]quinazolin-5-yl]amino}-1,4-diazepan-5-one] | – | – | > 2e-05 | 277 | –
CN(C)c1cccc(-c2nc3c4ccccc4nc(N[C@@H]4CNCCNC4=O)n3n2)c1 [Example 408, (6R)-6-({2-[3-(dimethylamino)phenyl][1,2,4]triazolo[1,5-c]quinazolin-5-yl}amino)-1,4-diazepan-5-one] | – | – | 1.85e-07 | 13.6 | –
O=C1NCCNCC1Nc1nc2cccc(C3CC3)c2c2nc(-c3cccc(F)c3)nn12 (single isomer, unassigned) [Example 301, 6-{[10-cyclopropyl-2-(3-fluorophenyl)[1,2,4]triazolo[1,5-c]quinazolin-5-yl]amino}-1,4-diazepan-5-one] | – | – | – | 2240 | > 2e-05
O=C1NCCCC[C@H]1Nc1nc2ccccc2c2nc(-c3cnn(C4CC4)c3)nn12 [Example 535, (3R)-3-{[2-(1-cyclopropyl-1H-pyrazol-4-yl)[1,2,4]triazolo[1,5-c]quinazolin-5-yl]amino}azepan-2-one] | – | – | 5.13e-09 | 2.57 | –
